The values that follow come from article PMC1082716, “Blockade of chemokine-induced signalling inhibits CCR5-dependent HIV infection in vitro without blocking gp120/CCR5 interaction” (Retrovirology, 2005).

Entries after “also recorded” stand apart in the source; their conditions may differ.

The target in test [1] is T1, CXCR4 (Homo sapiens, UniProt P61073).
T1 construct: CXCR4, which is expressed on both THP-1 and Jurkat cells, but at higher levels on the T-cell line; endogenous in cells; host or cells: Jurkat T-cells (whole cells, 10^6 per well, 4°C)
T1 sequence (P61073 whole entry): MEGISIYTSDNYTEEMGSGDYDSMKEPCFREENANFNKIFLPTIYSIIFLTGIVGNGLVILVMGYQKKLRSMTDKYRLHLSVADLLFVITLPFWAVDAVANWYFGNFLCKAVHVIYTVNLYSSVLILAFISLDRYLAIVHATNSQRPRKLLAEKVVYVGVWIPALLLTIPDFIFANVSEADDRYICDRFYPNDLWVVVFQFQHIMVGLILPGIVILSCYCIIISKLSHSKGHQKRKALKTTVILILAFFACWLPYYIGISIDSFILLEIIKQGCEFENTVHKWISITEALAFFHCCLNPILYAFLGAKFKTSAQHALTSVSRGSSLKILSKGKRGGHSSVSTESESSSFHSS
In words: Specific binding of biotinylated gp120:V3(IIIb) peptide to Jurkat cells. The note with it: 100 μM biotinylated gp120:V3(IIIb); various concentrations of inhibitor; 10^6 cells in 100 μl, 4°C; triplicate.

The test system of test [2] is chemokine receptors. Conditions: ref [27]; cited from earlier work.
Test [3] deals with chemokine receptor internalisation. Conditions: ref [27]; cited from earlier work. The text has this:
Since BSCIs, such as Peptide 3, ...

The subject of test [4] is HIV (IIIb). In words: HIV (IIIb) replication in Jurkat T-cells, supernatant reverse transcriptase activity. Type of test: cell-based. The note with it: HIV-1 IIIb 10^6 TCID50; Peptide 3 100 μM; two weeks; six separate experiments. The procedure:
(§1) HIV infection of Jurkat T-cells using the laboratory-adapted T-tropic isolate IIIb was monitored using two different assays. Firstly, Jurkat T-cells in 96-well plates were pre-treated with either Peptide 3, vehicle (as a negative control) or SDF1α (as a positive control) for 4 hours, then exposed to HIV virus (10^6 TCID50) and pulsed at 2–3 day intervals with Peptide 3, SDF1α or medium alone as appropriate. After two weeks in culture, the extent of viral infection was assayed by measuring the reverse transcriptase activity in the supernatant, as a measure of viral replication in the culture In six separate experiments, Peptide 3 (100 μM) had no effect on virus replication following HIV exposure (Fig 3a), while SDF1α inhibited reverse transcriptase activity by an average of 75%. No effect was seen on cell viability under any of the treatment conditions.
HIV-1 stocks were prepared in the following manner. HIV-1 IIIb (provided by the MRC AIDS Reagent Programme) was used to infect Jurkat T cells and the progression of infection was monitored using the reverse transcriptase assay for 10–14 days. […] Stocks of HIV-1 MN strain were prepared in a similar manner, except that H9 T cells were used and the progression of infection was monitored by immunofluoresence (because of the low RT activity) in this strain. […]

The test system of test [5] is RANTES-induced chemotaxis. As to the kind of experiment: RANTES-/MIP1α-induced chemotaxis (ChemoTx transwell). The format is cell-based. Conditions: RANTES per text, 25 ng/ml MIP1α per Fig 2f legend; 5 × 10^4 cells per well; 2 h, 37°C; MTT; triplicate. The procedure:
Figure 2 Effect of Peptide 3 on gp120:V3 loop peptide binding to cells. (a) The binding of 100 μM N-terminal biotinylated gp120:V3(IIIb) to THP-1 cells was measured in the presence of various concentrations of peptide 3. In each case, the non-specific binding (in the presence of 10 mM unlabelled gp120:V3 loop peptide) has been subtracted. (b) Chemotaxis in response to 100 ng/ml SDF1α was measured in the presence of various concentrations of peptide 3. […] (e) As for (a) except that the effect of Peptide 3 on the binding of gp120:V3(BaL) to THP-1 cells was determined. (f) As for (b) except that the effect of Peptide 3 on chemotaxis induced by 25 ng/ml MIP1α was determined. All binding reactions were performed with 10^6 cells in 100 μl of binding medium at 4°C. Chemotaxis assays were performed with 5 × 10^4 cells per well. Values are mean ± SEM of triplicate determinations.
Chemotaxis experiments were performed essentially as previously described, using the ChemoTx disposable 96-well transwell migration plates, with PVP-free membrane (6 μm pore size). […] The number of cells which had migrated to the lower compartment was determined using the vital dye MTT and interpolation of a standard curve. Each condition was determined in triplicate, and the number of cells migrating in the absence of chemoattractant was subtracted to determine the chemokine-dependent chemotaxis which was reported.

The subject of test [6] is CXCR4-dependent infection of Jurkat T cells. In words: CXCR4-dependent HIV infection of Jurkat T cells (assay not specified). The format is cell-based, HIV-1. The procedure:
as §1, with “No effect was seen on cell viability under any of the treatment conditions.” left out
HIV infection of Jurkat T-cells was also monitored by high sensitivity quantitative immunofluoresence detection of viral p24^gag expression. […] Expression of p24^gag was determined using quantitative immunofluoresence as previously described, except that the primary antibody was post-fixed to the section using paraformaldehyde to increase the sensitivity of the technique (see Methods). Viral infectivity was expressed as the number of cells stained for p24^gag expressed as a proportion of the total number of cells (detected using Hoechst 33342 nuclear dye). […]

For the sequence EICADPKQKWVQ [Peptide 3], the “Effect on binding of gp120:V3(IIIb) to Jurkat cells” value in test [1] is on record as “no effect”. Besides, the “Effect on binding of chemokine ligands to the receptors” value in test [2] is “do not block”. Moreover, in test [3], the “Effect on chemokine receptor internalisation induced by ligand binding” value is “do not block”. Also, the “Effect on virus replication following HIV exposure (reverse transcriptase activity)” value in test [4] is “no effect”. In addition, in test [5], the “Effect on RANTES-induced chemotaxis” value is reported as “powerfully inhibited; also recorded: profoundly blocked”. The “Effect on CXCR4-dependent HIV infection of Jurkat T cells” value in test [6] is on record as “did not affect; also recorded: no effect”.
